# Results: PMC7826463, “Pamiparib dose escalation in Chinese patients with non‐mucinous high‐grade ovarian cancer or advanced triple‐negative breast cancer” (Cancer Medicine, 2020)
# “And” between values parts separate entries of the source, which are not always exact repeats. Equal values may be shown once. “Also recorded” adds a separate entry of the source.
# Tested on: Chinese patients with advanced HGOC or TNBC
# Test: Safety/tolerability (adverse events per NCI-CTCAE v4.03, DLTs) in phase 1 dose escalation (NCT03333915)
# Type: in vivo
# Text: This phase 1/2, open‐label, multicenter study assessed the safety and antitumor activity of pamiparib in Chinese patients ≥18 years with advanced solid tumors whose disease progressed despite standard therapy or for which there is no standard therapy. Phase 1 was a dose‐escalation study, with a 3 + 3 design, that evaluated the single‐agent safety/tolerability, pharmacokinetic (PK) profile, and preliminary antitumor activity of pamiparib and confirmed the RP2D in Chinese patients (Figure 1). The phase 2 dose‐expansion component of this study is investigating the single‐agent antitumor activity and safety/tolerability of pamiparib.
# In phase 1, patients received pamiparib at 20, 40, and 60 mg BID dose levels. The starting dose for pamiparib (20 mg BID) was selected as one‐third of the RP2D (60 mg BID) and one‐fourth of the MTD (80 mg BID), which were determined in the FIH study. […] Safety evaluations, including dose‐limiting toxicities (DLTs), of ≥3 patients completing one cycle of treatment at a specific dose level were required before proceeding to the next cohort with a higher dose level. Patients could continue the study treatment in 21‐day cycles and subsequent cycles at the discretion of the investigator.
# The primary objective in phase 1 was to evaluate the safety and tolerability of pamiparib. Safety and tolerability endpoint assessments were based on monitoring of treatment‐emergent adverse events (AEs), in addition to vital signs, electrocardiograms, physical examinations, and clinical laboratory results. The incidence and severity of all AEs and incidence of serious AEs were assessed according to the National Cancer Institute‐Common Terminology Criteria for Adverse Events v4.03.
# Approximately 14 to 18 evaluable patients were expected to enroll in the phase 1 part of the study. The safety population included all patients who received ≥1 dose of pamiparib. The PK population included all patients for whom valid pamiparib PK parameters could be estimated. Antitumor activity per RECIST v1.1 was assessed in all evaluable patients. Patients were considered response evaluable if they had measurable disease at baseline per RECIST v1.1 and had ≥1 post‐baseline tumor assessment, unless treatment had been discontinued due to clinical progression or death prior to tumor assessment. The population evaluable for CA‐125 response included patients in the safety population with baseline CA‐125 ≥2 x upper limit of normal.
compound,measurement,setting,value
"C[C@]12CCCN1CC1=NNC(=O)c3cc(F)cc4[nH]c2c1c34 [pamiparib, Pamiparib]","Treatment-related adverse event Decreased white blood cell count, Grade ≥3",60 mg BID (n = 7),2 (28.6) n (%)
same,"Treatment-related adverse event Diarrhea, All Grades",60 mg BID (n = 7),2 (28.6) n (%)
same,"Treatment-related adverse event Diarrhea, Grade ≥3",60 mg BID (n = 7),0 n (%)
same,"Treatment-related adverse event Increased GGT, All Grades",60 mg BID (n = 7),1 (14.3) n (%)
same,"Treatment-related adverse event Increased GGT, Grade ≥3",60 mg BID (n = 7),0 n (%)
same,"Treatment-related adverse event Increased conjugated bilirubin, All Grades",60 mg BID (n = 7),2 (28.6) n (%)
same,"Treatment-related adverse event Increased conjugated bilirubin, Grade ≥3",60 mg BID (n = 7),0 n (%)
same,"Treatment-related adverse event Nausea, All Grades",60 mg BID (n = 7),5 (71.4) n (%)
same,"Treatment-related adverse event Nausea, Grade ≥3",60 mg BID (n = 7),1 (14.3) n (%)
same,"Treatment-related adverse event Prolonged electrocardiogram QT, All Grades",60 mg BID (n = 7),2 (28.6) n (%)
same,"Treatment-related adverse event Prolonged electrocardiogram QT, Grade ≥3",60 mg BID (n = 7),0 n (%)
same,"Treatment-related adverse event Somnolence, All Grades",60 mg BID (n = 7),1 (14.3) n (%)
same,"Treatment-related adverse event Somnolence, Grade ≥3",60 mg BID (n = 7),0 n (%)
same,"Treatment-related adverse event Tachycardia, All Grades",60 mg BID (n = 7),2 (28.6) n (%)
same,"Treatment-related adverse event Tachycardia, Grade ≥3",60 mg BID (n = 7),0 n (%)
same,"Treatment-related adverse event Vomiting, All Grades",60 mg BID (n = 7),2 (28.6) n (%)
same,"Treatment-related adverse event Vomiting, Grade ≥3",60 mg BID (n = 7),1 (14.3) n (%)
same,Discontinued treatment: Adverse event,"60 mg BID (n=7), count (percent)",2 (28.6)
same,Tolerability,"20 to 60 mg BID, Chinese patients",generally well tolerated
same,Grade 3 TRAE: anemia,N = 15,2 n
same,Grade 4 or 5 TRAEs,N = 15,No grade 4 or 5 TRAEs
same,Grade ≥4 AEs,N = 15,no grade ≥4 AEs
same,Patients who experienced a serious AE,N = 15,three
same,Patients who experienced ≥1 AE considered related to pamiparib,N = 15,100%
same,Serious AE: abdominal infection,N = 15,1 n
same,Serious AE: intestinal obstruction,N = 15,1 n
same,Serious AE: pleural effusion,N = 15,1 n
same,Serious AEs considered related to study treatment,N = 15,none and no DLTs or serious AEs considered related to pamiparib
same,Patients who experienced grade ≥3 AEs,"N = 15 (10 patients), all causality",67%
same,Patients who experienced ≥1 TRAE of grade 3 severity,N = 15 (six patients),40%
same,AE of any grade: asthenia,"N = 15, all causality",80%
same,AE of any grade: decreased appetite,"N = 15, all causality",60%
same,AE of any grade: decreased white blood cell count,"N = 15, all causality",67%
same,AE of any grade: nausea,"N = 15, all causality",80%
same,Grade ≥3 AE: anemia,"N = 15, all causality",27%
same,Grade ≥3 AE: decreased hemoglobin,"N = 15, all causality",20%
same,Patients who experienced ≥1 AE of any grade,"N = 15, all causality",15 patients
same,Treatment-related AE: asthenia,"N = 15, any grade",80%
same,Treatment-related AE: nausea,"N = 15, any grade",80%
same,Recommended phase 2 dose (RP2D) confirmed in Chinese patients,PO,60 mg BID
same,"Treatment-related adverse event Asthenia, All Grades",Total (N = 15),12 n (%) and 12 (80.0) n (%)
same,"Treatment-related adverse event Asthenia, Grade ≥3",Total (N = 15),0 n (%)
same,"Treatment-related adverse event Decreased appetite, All Grades",Total (N = 15),9 (60.0) n (%)
same,"Treatment-related adverse event Decreased appetite, Grade ≥3",Total (N = 15),0 n (%)
same,"Treatment-related adverse event Decreased hemoglobin, All Grades",Total (N = 15),6 (40.0) n (%)
same,"Treatment-related adverse event Decreased hemoglobin, Grade ≥3",Total (N = 15),3 n (%) and 3 (20) n (%)
same,"Treatment-related adverse event Decreased neutrophil count, All Grades",Total (N = 15),8 (53.3) n (%)
same,"Treatment-related adverse event Decreased neutrophil count, Grade ≥3",Total (N = 15),2 n (%) and 2 (13) n (%)
same,"Treatment-related adverse event Decreased platelet count, All Grades",Total (N = 15),3 (20.0) n (%)
same,"Treatment-related adverse event Decreased platelet count, Grade ≥3",Total (N = 15),1 n (%) and 1 (7) n (%)
same,"Treatment-related adverse event Decreased white blood cell count, All Grades",Total (N = 15),10 (66.7) n (%)
same,"Treatment-related adverse event Decreased white blood cell count, Grade ≥3",Total (N = 15),2 n (%) and 2 (13) n (%)
same,"Treatment-related adverse event Diarrhea, All Grades",Total (N = 15),3 (20.0) n (%)
same,"Treatment-related adverse event Diarrhea, Grade ≥3",Total (N = 15),0 n (%)
same,"Treatment-related adverse event Increased GGT, All Grades",Total (N = 15),3 (20.0) n (%)
same,"Treatment-related adverse event Increased GGT, Grade ≥3",Total (N = 15),0 n (%)
same,"Treatment-related adverse event Increased conjugated bilirubin, All Grades",Total (N = 15),4 (26.7) n (%)
same,"Treatment-related adverse event Increased conjugated bilirubin, Grade ≥3",Total (N = 15),0 n (%)
same,"Treatment-related adverse event Nausea, All Grades",Total (N = 15),12 n (%) and 12 (80.0) n (%)
same,"Treatment-related adverse event Nausea, Grade ≥3",Total (N = 15),1 n (%) and 1 (7) n (%)
same,"Treatment-related adverse event Prolonged electrocardiogram QT, All Grades",Total (N = 15),4 (26.7) n (%)
same,"Treatment-related adverse event Prolonged electrocardiogram QT, Grade ≥3",Total (N = 15),1 n (%) and 1 (7) n (%)
same,"Treatment-related adverse event Somnolence, All Grades",Total (N = 15),3 (20.0) n (%)
same,"Treatment-related adverse event Somnolence, Grade ≥3",Total (N = 15),0 n (%)
same,"Treatment-related adverse event Tachycardia, All Grades",Total (N = 15),3 (20.0) n (%)
same,"Treatment-related adverse event Tachycardia, Grade ≥3",Total (N = 15),0 n (%)
same,"Treatment-related adverse event Vomiting, All Grades",Total (N = 15),4 (26.7) n (%)
same,"Treatment-related adverse event Vomiting, Grade ≥3",Total (N = 15),1 n (%) and 1 (7) n (%)
same,Dose-limiting toxicities (DLTs),"pamiparib dose range 20-60 mg BID, 23-day initial cycle",No dose‐limiting toxicities; also recorded: no DLTs
